Results published in patent US10463651B2, “3-(1H-pyrrolo[3,2-C]pyridin-2-YL)-1H-indazoles and therapeutic uses thereof” (Samumed, LLC, priority 2015, dated 2019).
pEC50: −log10 of the molar value.

Tests used:
Type in all cases: cell-based
[1] = test system: Wnt activity (Sp5-Luc reporter, SW480 colon carcinoma cells); assay: Screening assay for Wnt activity (Sp5-Luc reporter gene assay in SW480 cells); conditions: Homo sapiens; for pEC50: Sp5-Luc reporter, SW480 cells, incubated overnight
Summary of the method: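 SW480 colon carcinoma cells stably carrying Sp5 promoter (eight TCF/LEF sites)-driven firefly luciferase, plated at 4,000 cells/well in 1% FBS medium and incubated overnight at 37° C. Luminescence normalised to DMSO-only cells; EC50 from four-parameter variable-slope nonlinear regression.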

[2] = test system: SW480 colon cancer cells; assay: Cell viability assay (CellTiter-Blue); conditions: Homo sapiens; for pEC50: 96 h, SW480 cell viability, four days, CellTiter-Blue; for inhibition at 10 µM: SW480, 96 h, read-out: percent inhibition at 10 μM
Summary of the method: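 Fluorescence from resazurin reduced to resorufin by metabolically active cells was the read-out, taken after ~3 h with CellTiter-Blue.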

[3] = test system: primary human fibroblasts derived from IPF patients (LL29 cells) treated with TGF-β1; assay: Inhibition of the fibrotic process (αSMA staining) in TGF-β1-treated fibroblasts; conditions: Fibroblast, 96 h; for pEC50: % αSMA-positive LL29 cells, TGF-β1 20 ng/mL, 4 days; for inhibition at 10 µM: read-out: percent inhibition at 10 μM
Summary of the method: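 LL29 fibroblasts from IPF patients, 1,500 cells/well in F12 with 1% FBS, stimulated with TGF-β1; TGF-β1 plus DMSO wells as controls. Incubation 4 days, then SYTOX green 1 μM final for 30 min at room temperature. Fibrotic response read as αSMA staining.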

[4] = test system: primary human mesenchymal stem cells (hMSCs); assay: Induction of chondrogenesis in hMSCs (Rhodamine B / Nile Red nodule imaging); conditions: for EC50: concentration required to induce 50% levels of chondrogenesis vs TGF-β3 positive control, read-out: Conc (nM) of 50% TGF-β3 activity; for Emax: maximum activity relative to TGF-β3 (10 ng/mL) positive control, read-out: Max. Activity as % TGF-β3 activity
Source text: Representative compounds were screened using primary human mesenchymal stem cells (hMSCs) to determine their ability to induce chondrogenesis (process by which cartilage is developed).
Primary human mesenchymal stem cells (hMSCs) were purchased from Lonza (Walkersville, Md.) and expanded in Mesenchymal Stem Cell Growth Media (Lonza). Cells between passage 3 and 6 were used for the experiments.
Area of nodules in each well was normalized to the average of 3 DMSO treated wells on the same plate using Excel (Microsoft Inc.). The normalized averages (fold change over DMSO) of 2 or 3 replicate wells for each compound concentration were calculated. Due to solubility limitations of some of the compounds, curve fitting was incomplete leading to inaccurate EC50 determinations.
Using TGF-β3 as a positive control, the concentration of representative compounds required to induce 50% levels of chondrogenesis is reported. In addition, the maximum activity of each compound and the respective dose that each compound reached maximum chondrogenesis activity is reported.

[5] = test system: IL-6 (THP-1 cells); assay: IL-6 inhibition in LPS-stimulated THP-1 cells (HTRF); conditions: Homo sapiens; for pEC50: IL6 by HTRF, THP-1 cells, 500 ng/mL LPS, 22 hours; for inhibition at 10 µM: THP-1, read-out: percent inhibition at 10 M
Summary of the method: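 THP-1 cells, pre-cultured 24 h in 1% FBS medium, treated with compound 2 h at 37 °C, then stimulated with 500 ng/mL LPS for 22 h. Secreted IL-6 measured by HTRF as the 665/620 nm ratio. Values normalized to DMSO; EC50 from four-parameter fit, duplicates.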

| Compound | pEC50 [1] | pEC50 [2] | pEC50 [3] | EC50 [4] [nM] | Emax [4] [%] | pEC50 [5] | inhibition at 10 µM [5] [%] | inhibition at 10 µM [3] [%] | inhibition at 10 µM ([1]; SW480, read-out: percent inhibition at 10 μM) [%] | inhibition at 10 µM [2] [%] |
| --- | --- | --- | --- | --- | --- | --- | --- | --- | --- | --- |
| O=C(Nc1cncc(-c2ccc3[nH]nc(-c4cc5cnccc5[nH]4)c3c2)c1)C1CCC1 [Compound 273, N-(5-(3-(1H-Pyrrolo[3,2-c]pyridin-2-yl)-1H-indazol-5-yl)pyridin-3-yl)cyclobutanecarboxamide] | 7.12 | 6.36 | 7.02 | 10 | 213 | 6.93 | – | – | – | – |
| Nc1cncc(-c2ccc3[nH]nc(-c4cc5c(-c6ccncc6)nccc5[nH]4)c3c2)c1 [Compound 115, 5-(3-(4-(Pyridin-4-yl)-1H-pyrrolo[3,2-c]pyridin-2-yl)-1H-indazol-5-yl)pyridin-3-amine] | 6.18 | 5.42 | 5.86 | 100 | 77 | < 5.00 | 29 | – | – | – |
| CCNCc1cncc(-c2ccc3[nH]nc(-c4cc5cnccc5[nH]4)c3c2)c1 [Compound 258, N-((5-(3-(1H-Pyrrolo[3,2-c]pyridin-2-yl)-1H-indazol-5-yl)pyridin-3-yl)methyl)ethanamine] | 5.99 | 6.07 | 5.90 | 10 | 317 | 6.35 | – | – | – | – |
| Fc1ccccc1-c1nccc2[nH]c(-c3n[nH]c4ccc(-c5cncc(CN6CCCCC6)c5)cc34)cc12 [Compound 71, 3-(4-(2-Fluorophenyl)-1H-pyrrolo[3,2-c]pyridin-2-yl)-5-(5-(piperidin-1-ylmethyl)pyridin-3-yl)-1H-indazole] | 5.55 | 6.00 | 5.71 | – | 16 | 5.96 | – | – | – | – |
| O=C(Nc1cncc(-c2ccc3[nH]nc(-c4cc5c(N6CCCCC6)nccc5[nH]4)c3c2)c1)C1CC1 [Compound 188, N-(5-(3-(4-(Piperidin-1-yl)-1H-pyrrolo[3,2-c]pyridin-2-yl)-1H-indazol-5-yl)pyridin-3-yl)cyclopropanecarboxamide] | 5.74 | 6.01 | 5.05 | 900 | 146 | 6.42 | – | – | – | – |
| CC(C)C(=O)Nc1cncc(-c2ccc3[nH]nc(-c4cc5c(-c6ccccc6F)nccc5[nH]4)c3c2)c1 [Compound 65, N-(5-(3-(4-(2-Fluorophenyl)-1H-pyrrolo[3,2-c]pyridin-2-yl)-1H-indazol-5-yl)pyridin-3-yl)isobutyramide] | 6.77 | 6.66 | 7.01 | 2700 | 108 | 7.14 | – | – | – | – |
| O=C(Cc1ccccc1)Nc1cncc(-c2ccc3[nH]nc(-c4cc5c(N6CCCCC6)nccc5[nH]4)c3c2)c1 [Compound 178, 2-Phenyl-N-(5-(3-(4-(piperidin-1-yl)-1H-pyrrolo[3,2-c]pyridin-2-yl)-1H-indazol-5-yl)pyridin-3-yl)acetamide] | 5.63 | 5.54 | 6.30 | 900 | 73 | 5.82 | – | – | – | – |
| CN1CCN(c2nccc3[nH]c(-c4n[nH]c5ccc(-c6cncc(NC(=O)c7ccccc7)c6)cc45)cc23)CC1 [Compound 235, N-(5-(3-(4-(4-Methylpiperazin-1-yl)-1H-pyrrolo[3,2-c]pyridin-2-yl)-1H-indazol-5-yl)pyridin-3-yl)benzamide] | 5.67 | 5.44 | 5.79 | – | 35 | 6.12 | – | – | – | – |
| CN1CCN(c2nccc3[nH]c(-c4n[nH]c5ccc(-c6cncc(CN7CCCC7)c6)cc45)cc23)CC1 [Compound 238, 3-(4-(4-Methylpiperazin-1-yl)-1H-pyrrolo[3,2-c]pyridin-2-yl)-5-(5-(pyrrolidin-1-ylmethyl)pyridin-3-yl)-1H-indazole] | 5.03 | 5.38 | < 5.00 | – | 31 | < 5.00 | 40.5 | 45.7 | – | – |
| FC1(F)CCN(Cc2cncc(-c3ccc4[nH]nc(-c5cc6c(N7CCCCC7)nccc6[nH]5)c4c3)c2)C1 [Compound 194, 5-(5-((3,3-difluoropyrrolidin-1-yl)methyl)pyridin-3-yl)-3-(4-(piperidin-1-yl)-1H-pyrrolo[3,2-c]pyridin-2-yl)-1H-indazole] | 5.70 | 5.85 | 6.00 | – | 40 | 6.59 | – | – | – | – |
| O=C(Cc1ccccc1)Nc1cncc(-c2ccc3[nH]nc(-c4cc5cnccc5[nH]4)c3c2)c1 [Compound 262, N-(5-(3-(1H-Pyrrolo[3,2-c]pyridin-2-yl)-1H-indazol-5-yl)pyridin-3-yl)-2-phenylacetamide] | 5.76 | 5.46 | 6.12 | 10 | 119 | 5.77 | – | – | – | – |
| Fc1cccc(-c2nccc3[nH]c(-c4n[nH]c5ccc(-c6cccnc6)cc45)cc23)c1 [Compound 4, 3-(4-(3-Fluorophenyl)-1H-pyrrolo[3,2-c]pyridin-2-yl)-5-(pyridin-3-yl)-1H-indazole] | 6.85 | 6.34 | 7.36 | – | 32 | 6.79 | – | – | – | – |
| Fc1ccc(-c2nccc3[nH]c(-c4n[nH]c5ccc(-c6cncnc6)cc45)cc23)cc1 [Compound 55, 3-(4-(4-Fluorophenyl)-1H-pyrrolo[3,2-c]pyridin-2-yl)-5-(pyrimidin-5-yl)-1H-indazole] | 5.82 | 5.98 | 6.49 | 10 | 194 | 5.81 | – | – | – | – |
| CCC(=O)Nc1cncc(-c2ccc3[nH]nc(-c4cc5cnccc5[nH]4)c3c2)c1 [Compound 253, N-(5-(3-(1H-Pyrrolo[3,2-c]pyridin-2-yl)-1H-indazol-5-yl)pyridin-3-yl) propionamide] | 6.82 | 6.27 | 6.30 | 900 | 259 | 6.72 | – | – | – | – |
| CS(=O)(=O)NCc1cc(F)cc(-c2nccc3[nH]c(-c4n[nH]c5ccc(-c6ccncc6)cc45)cc23)c1 [Compound 494, N-(3-Fluoro-5-(2-(5-(pyridin-4-yl)-1H-indazol-3-yl)-1H-pyrrolo[3,2-c]pyridin-4-yl)benzyl)methanesulfonamide] | < 5.00 | < 5.00 | < 5.00 | 900 | 66 | < 5.00 | 44.6 | 0 | 19 | 9.5 |
| CC(C)C(=O)Nc1cncc(-c2ccc3[nH]nc(-c4cc5c(N6CCN(C)CC6)nccc5[nH]4)c3c2)c1 [Compound 233, N-(5-(3-(4-(4-Methylpiperazin-1-yl)-1H-pyrrolo[3,2-c]pyridin-2-yl)-1H-indazol-5-yl)pyridin-3-yl)isobutyramide] | 5.11 | < 5.00 | 5.33 | – | 21 | 5.21 | – | – | – | 38.5 |
| CCCCC(=O)Nc1cncc(-c2ccc3[nH]nc(-c4cc5c(-c6ccccc6F)nccc5[nH]4)c3c2)c1 [Compound 75, N-(5-(3-(4-(2-Fluorophenyl)-1H-pyrrolo[3,2-c]pyridin-2-yl)-1H-indazol-5-yl)pyridin-3-yl)pentanamide] | 6.46 | 6.66 | 6.60 | 2700 | 76 | 7.41 | – | – | – | – |
| CN(C)Cc1cncc(-c2ccc3[nH]nc(-c4cc5c(N6CCCCC6)nccc5[nH]4)c3c2)c1 [Compound 181, N,N-Dimethyl-1-(5-(3-(4-(piperidin-1-yl)-1H-pyrrolo[3,2-c]pyridin-2-yl)-1H-indazol-5-yl)pyridin-3-yl)methanamine] | 5.33 | 5.71 | 5.48 | 10 | 220 | < 5.00 | 22.5 | – | – | – |
| CN1CCN(c2nccc3[nH]c(-c4n[nH]c5ccc(-c6cncc(NC(=O)C7CCCCC7)c6)cc45)cc23)CC1 [Compound 247, N-(5-(3-(4-(4-Methylpiperazin-1-yl)-1H-pyrrolo[3,2-c]pyridin-2-yl)-1H-indazol-5-yl)pyridin-3-yl)cyclohexanecarboxamide] | 5.28 | 5.32 | 5.48 | – | 38 | 5.05 | – | – | – | – |
